Measurements from BigSolDB 2.1.

C/C(=C/C(C)=N/c1c(C(C)C)cccc1C(C)C)Nc1c(C(C)C)cccc1C(C)C
solubility (mole fraction)
Details	in THF	in ethanol	in methanol	in n-hexane	in toluene
268.15 K	0.101	0.0008	–	0.0374	0.054
273.15 K	0.108	0.0009	–	0.0417	0.061
278.15 K	0.114	0.001	–	0.0464	0.0673
283.15 K	0.122	0.0013	0.0001	0.048	0.078
288.15 K	0.138	0.0015	0.0002	0.0546	0.087
293.15 K	0.15	0.0019	0.0002	0.0609	0.099
298.15 K	0.169	0.0022	0.0003	0.0699	0.108
303.15 K	0.184	0.0025	0.0004	0.078	0.127
308.15 K	0.199	0.003	0.0005	0.0891	0.145
313.15 K	0.223	0.0036	0.0007	0.103	0.151
318.15 K	–	–	0.0008	–	–
